Reference: publication PMC6736568, “Discovery of Novel Anti-cryptosporidial Activities From Natural Products by in vitro High-Throughput Phenotypic Screening” (Frontiers in Microbiology, 2019)
Where a name gives a salt, the structure may show the parent alone. Read-outs that look alike come from different tables or passages of the source.

Key:
Cryptosporidium parvum = experiment: qRT-PCR assay of the growth of C. parvum in vitro in HCT-8 host cells (primary and secondary screening, EC50); type: cell-based; details: Cryptosporidium parvum, HCT-8; for inhibition at 10 µM: primary screening at 10 uM, read-out: Inhibition (%); for inhibition at 3.3 µM: secondary screening at 3.3 uM, read-out: % Inhibition (3.3 uM)
in vitro = details: for cytotoxicity at 41 h, 10 µM: human
[1] = primary screening at 10 uM, treated vs control

| SMILES | inhibition at 10 µM (Cryptosporidium parvum) [%] | Hs18S ΔCT (HCT-8 host cells (Hs18S); human, 41 h, 10 μM) | cytotoxicity at 41 h, 10 µM (in vitro) [%] | Hs18S ΔCT (HCT-8 host cells (Hs18S); [1]) | cytotoxicity at 10 µM (in vitro) [%] | inhibition at 3.3 µM (Cryptosporidium parvum) [%] | Hs18S ΔCT (HCT-8 host cells (Hs18S)) |
| --- | --- | --- | --- | --- | --- | --- | --- |
| C/C(=C\C(=O)OCCCCCCCCC(=O)O)C[C@@H]1OC[C@H](C[C@@H]2O[C@H]2[C@@H](C)[C@H](C)O)[C@@H](O)[C@H]1O [MUPIROCIN] | 45.6 | 0.09 | 5.8 | – | – | – | – |
| CC1=CC2C(CC1=O)C(C)=CCC2C(C)C (centres unmarked) [MUUROLLADIE-3-ONE] | -7.55 | -0.02 | -1.7 | – | – | – | – |
| COc1c(C)c2c(c(O)c1C/C=C(\C)CCC(=O)O)C(=O)OC2 [MYCOPHENOLIC ACID] | 44.4 | 1.03 | 51.1 | – | – | – | – |
| c1cncc(C2=NCCC2)c1 [MYOSMINE] | -17.6 | – | – | 0.07 | 4.5 | – | – |
| C=CCN1CC[C@]23c4c5ccc(O)c4O[C@H]2C(=O)CC[C@@]3(O)[C@H]1C5 [NALOXONE HYDROCHLORIDE] | 21.9 | – | – | 0.20 | 12.7 | – | – |
| O=C1C[C@@H](c2ccc(O)cc2)Oc2cc(O)cc(O)c21 [NARINGENIN] | 47.6 | – | -17.3 | -0.23 | – | – | – |
| C[C@@H]1O[C@@H](O[C@H]2[C@H](Oc3cc(O)c4c(c3)O[C@H](c3ccc(O)cc3)CC4=O)O[C@H](CO)[C@@H](O)[C@@H]2O)[C@H](O)[C@H](O)[C@H]1O [NARINGIN] | 2.06 | 0.16 | 10.4 | – | – | – | – |
| CC(C)=CCC/C(C)=C\CO [NEROL] | -20.6 | 0.43 | 25.8 | – | – | – | – |
| NC(=O)c1cccnc1 [NIACINAMIDE] | -9.59 | -0.05 | -3.6 | – | – | – | – |
| O=C(O)c1cccnc1 [NIACIN] | -6.7 | 0.08 | 5.3 | – | – | – | – |
| COc1ccc(-c2cc(=O)c3c(OC)c(OC)c(OC)c(OC)c3o2)cc1OC [NOBILETIN] | 94.6 | 0.26 | 16.2 | – | – | -25 | – |
| CCCCC[C@H](CC(=O)O)C(=O)O [NONIC ACID] | -17.1 | 0.06 | 3.9 | – | – | – | – |
| Cc1cc(O)c(C=O)c2c1C(=O)Oc1c(C)c(O)c3c(c1O2)C(O)OC3=O (centres unmarked) [NORSTICTIC ACID] | -20.8 | -0.18 | -13.4 | – | – | – | – |
| COc1ccc2c(c1OC)C(=O)O[C@@H]2[C@H]1c2c(cc3c(c2OC)OCO3)CCN1C [NOSCAPINE HYDROCHLORIDE] | -51.6 | 0.30 | 18.9 | – | – | – | – |
| CO[C@@H]1[C@@H](OC(N)=O)[C@@H](O)[C@H](Oc2ccc3c(O)c(NC(=O)c4ccc(O)c(CC=C(C)C)c4)c(=O)oc3c2C)OC1(C)C [NOVOBIOCIN SODIUM] | -13.6 | 0.10 | 6.5 | – | – | – | – |
| C=C(C)[C@H]1COc2cc3oc(=O)ccc3cc2O1 [OBLIQUIN] | 1.63 | – | – | -0.33 | -25.7 | – | – |
| COC1=CC(=O)C(O)=C/C1=C\C=C\c1ccccc1 [OBTUSAQUINONE] | 87.1 | 0.84 | 44.3 | – | – | -92 | – |
| NCC(O)c1ccc(O)cc1 (centres unmarked) [OCTOPAMINE HYDROCHLORIDE] | 85.1 | -0.21 | -15.8 | – | – | -12 | – |

| SMILES | inhibition at 10 µM (Cryptosporidium parvum) [%] | Hs18S ΔCT (HCT-8 host cells (Hs18S); human, 41 h, 10 μM) | cytotoxicity at 41 h, 10 µM (in vitro) [%] | Hs18S ΔCT (HCT-8 host cells (Hs18S); [1]) | cytotoxicity at 10 µM (in vitro) [%] | inhibition at 3.3 µM (Cryptosporidium parvum) [%] | Hs18S ΔCT (HCT-8 host cells (Hs18S)) |
| --- | --- | --- | --- | --- | --- | --- | --- |
| CO[C@H]1C[C@H](O[C@H]2[C@H](C)[C@@H](O[C@@H]3O[C@H](C)C[C@H](N(C)C)[C@H]3O)[C@@H](C)C[C@@]3(CO3)C(=O)[C@H](C)[C@@H](O)[C@@H](C)[C@@H](C)OC(=O)[C@@H]2C)O[C@@H](C)[C@@H]1O [OLEANDOMYCIN PHOSPHATE] | 17.6 | 3.02 | 87.6 | – | – | – | – |
| COc1ccc(CC(=O)c2ccc(O)cc2O)cc1 [ONONETIN] | 8.27 | -0.18 | -12.9 | – | – | – | – |
| O=C(O)c1cc(=O)[nH]c(=O)[nH]1 [OROTIC ACID] | 8.85 | -0.39 | -31.1 | – | – | – | – |
| CCOC(=O)c1c(C)cc(O)cc1O [ORSELLINIC ACID, ETHYL ESTER] | 23.7 | -0.12 | -8.3 | – | – | – | – |
| Cc1cc(O)cc(O)c1C(=O)O [ORSELLINIC ACID] | 37.5 | – | -19.3 | -0.25 | – | – | – |
| CC(C)=CCc1c2c(c3occ(-c4ccc(O)cc4)c(=O)c3c1O)C=CC(C)(C)O2 [OSAJIN] | -1.77 | -1.06 | -108 | – | – | – | – |
| CC(=O)O[C@H]1C(=O)[C@@]2(C)[C@H]([C@H](OC(=O)c3ccccc3)[C@]3(O)C[C@H](OC(=O)[C@H](O)[C@@H](NC(=O)c4ccccc4)c4ccccc4)C(C)=C1C3(C)C)[C@]1(OC(C)=O)CO[C@@H]1C[C@@H]2O [PACLITAXEL] | 86.6 | 0.65 | 36.1 | – | – | 93 | – |
| COc1ccc(C(C)=O)c(O)c1 [PAEONOL] | -10.4 | 0.01 | 0.8 | – | – | – | – |
| COc1cc2c(cc1OC)-c1cc3ccc(OC)c(OC)c3c[n+]1CC2 [PALMATINE CHLORIDE] | 9.29 | -0.09 | -6.1 | – | – | – | – |
| CCCCCCCCCCCCCCCC(=O)NCCO [PALMIDROL] | -7.35 | 0.05 | 3.5 | – | – | – | – |
| COc1ccc(Cc2nccc3cc(OC)c(OC)cc23)cc1OC [PAPAVERINE HYDROCHLORIDE] | 56.2 | – | 32.7 | – | – | – | 0.57 |
| NC[C@@H]1O[C@H](O[C@H]2[C@@H](O)[C@H](O[C@@H]3[C@@H](O)[C@H](N)C[C@H](N)[C@H]3O[C@H]3O[C@H](CO)[C@@H](O)[C@H](O)[C@H]3N)O[C@@H]2CO)[C@H](N)[C@@H](O)[C@@H]1O [PAROMOMYCIN SULFATE] | 19.7 | 0.08 | 5.5 | – | – | – | – |
| O=C1C=C2C(=CCOC2O)O1 (centres unmarked) [PATULIN] | 91.4 | – | – | 0.81 | 43 | 10 | – |
| COc1ccc(-c2cc(=O)c3c(O)c(OC)c(O[C@@H]4O[C@H](CO[C@@H]5O[C@@H](C)[C@H](O)[C@@H](O)[C@H]5O)[C@@H](O)[C@H](O)[C@H]4O)cc3o2)cc1 [PECTOLINARIN] | -21 | 1.99 | 74.8 | – | – | – | – |
| C[C@@]12C[C@@]3(O)O[C@@H](O1)[C@]1(COC(=O)c4ccccc4)[C@H]3C[C@@]12O[C@@H]1O[C@H](CO)[C@@H](O)[C@H](O)[C@H]1O [PEONIFLORIN] | -19.9 | -0.11 | -7.6 | – | – | – | – |
| COc1ccc(C(C)=O)c(OC)c1 [PEONOL METHYL ETHER] | 18.9 | -0.31 | -24.3 | – | – | – | – |
| C=C(C)[C@@H]1CC=C(C(=O)O)CC1 [PERILLIC ACID (-)] | -16.2 | – | – | 0.14 | 8.9 | – | – |
| C=C(C)[C@@H]1CC=C(CO)CC1 [PERILLYL ALCOHOL] | 29.5 | -0.35 | -27.4 | – | – | – | – |
